Data published in PMC6016545 (Journal of medicinal chemistry, 2016).
Like-named read-outs stand apart in the source and are kept apart here.

Tests used:
PSMA(+) PC3-PIP cells = settings: cited from earlier work
PSMA [1] = biological target: T1, PSMA (Homo sapiens, UniProt Q04609); test: PSMA inhibition, IC50 determination
PSMA [2] = biological target: T1, PSMA; test: Mode of inhibition study; settings: reversible, slowly reversible, or irreversible

T1 sequence (Q04609 whole entry): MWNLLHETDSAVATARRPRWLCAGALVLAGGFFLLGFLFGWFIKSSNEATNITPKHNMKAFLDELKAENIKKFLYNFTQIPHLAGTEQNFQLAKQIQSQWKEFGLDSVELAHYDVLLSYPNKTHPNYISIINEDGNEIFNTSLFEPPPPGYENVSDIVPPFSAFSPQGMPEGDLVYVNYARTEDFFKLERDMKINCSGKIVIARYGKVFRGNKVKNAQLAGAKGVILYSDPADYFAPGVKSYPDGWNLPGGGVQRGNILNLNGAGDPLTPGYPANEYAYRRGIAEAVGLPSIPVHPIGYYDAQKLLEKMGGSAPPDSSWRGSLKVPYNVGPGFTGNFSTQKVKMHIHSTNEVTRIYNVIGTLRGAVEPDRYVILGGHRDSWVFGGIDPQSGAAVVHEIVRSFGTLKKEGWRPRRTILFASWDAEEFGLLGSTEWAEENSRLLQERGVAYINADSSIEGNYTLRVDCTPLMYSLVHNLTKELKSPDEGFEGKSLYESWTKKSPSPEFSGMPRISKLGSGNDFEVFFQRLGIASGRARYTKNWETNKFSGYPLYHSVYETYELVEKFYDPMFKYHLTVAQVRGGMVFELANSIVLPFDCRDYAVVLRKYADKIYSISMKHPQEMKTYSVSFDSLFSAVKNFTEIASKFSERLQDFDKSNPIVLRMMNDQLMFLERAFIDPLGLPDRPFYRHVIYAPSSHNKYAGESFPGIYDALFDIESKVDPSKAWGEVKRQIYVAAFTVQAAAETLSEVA

| SMILES | IC50 (PSMA [1]) | mode of binding to PSMA (PSMA [2]) | further results |
| --- | --- | --- | --- |
| O=C(O)CC[C@H](NC(=O)N[C@@H](CSCc1ccc([18F])cc1)C(=O)O)C(=O)O [[^18F]DCFBC, N[N-[(S)-1,3-dicarboxypropyl]carbamoyl]-4-[^18F] fluorobenzyl-L-cysteine] |  |  | tumor uptake (PSMA(+) PC3-PIP cells; PSMA(+) PC3-PIP cells): 4.7%; tumor/blood ratio (PSMA(+) PC3-PIP cells; PSMA(+) PC3-PIP cells): 13 |
| O=C(O)CCC(NC(=O)NC(CCCCNC(=O)c1ccc([18F])nc1)C(=O)O)C(=O)O (stereo not shown) [[^18F]DCFPyL, 2-(3-(1-carboxy-5-[(6-[^18F]-fluoropyridine-3-carbonyl)amino]pentyl)ureido)pentanedioic acid] |  |  | liver uptake (PSMA(+) PC3-PIP cells; 2 h): 2.14%; renal uptake (PSMA(+) PC3-PIP cells; 2 h): 15.7%; tumor uptake (PSMA(+) PC3-PIP cells; 2 h in PC3-PIP cells): 39.4% |
| NCCCCCC(=O)NCCCCCC(=O)N[C@@H](CCC(=O)N[C@H](CCCOP(=O)(O)NC(CCC(=O)O)C(=O)O)C(=O)O)C(=O)O (stereo partly drawn) [compound 3, 2-(((S)-((4R)-4-(4-(6-(6-Aminohexanamido)-hexanamido)-4-carboxybutanamido)-4-carboxybutoxy)-(hydroxy)phosphoryl)amino)pentanedioic Acid] | 7.8 nM |  |  |
| O=C(O)CC[C@H](NP(=O)(O)OCCC[C@H](NC(=O)CC[C@H](NC(=O)CCCCCNC(=O)c1ccc(F)cc1)C(=O)O)C(=O)O)C(=O)O [compound 5] | 0.4 nM | irreversible |  |
| O=C(O)CCC(NP(=O)(O)OCCC[C@@H](NC(=O)CC[C@H](NC(=O)CCCCCNC(=O)CCCCCNC(=O)c1ccc(F)cc1)C(=O)O)C(=O)O)C(=O)O (stereo partly drawn) [compound 6, 2-(((S)-(((22R)-17,22-Dicarboxy-1-(4-fluoro-phenyl)-1,8,15,20-tetraoxo-2,9,16,21-tetraazapentacosan-25-yl)oxy)(hydroxy)phosphoryl)amino)pentanedioic Acid] | 0.9 nM | irreversible |  |
